According to patent publication US7838490B2, “Methods and compositions for inhibition of vascular permeability” (University of Virginia Patent Foundation, priority 2005, dated 2010):

How the values were obtained:
Erk [1] = assay: phospho-Erk staining of lung sections from LPS-treated mice; assay type: in vivo; settings: 6 h, peptides 1 mg, UO126 0.5 ml of 70 μM
Protocol: A. Mice were injected with Nck-blocking peptide (1 mg; comprising SEQ ID NO:7), control peptide (1 mg) or UO126 (0.5 ml of 70 μM), then treated with or without LPS as in FIG. 1. At 6 hours, the lungs were removed, sectioned, and stained for activated Erk using pT202/pY204 antibody. Small arrows indicate unidentified cells in control lungs that stain positively. Large arrows indicate conduit blood vessels.
C. Lungs from mice pretreated with 1 mg/ml PIX blocking peptide and exposed to LPS as in FIG. 3A were stained for phospho-Erk. […] Arrow indicates a conduit vessel.
Control animals inhaled saline.
Mouse lungs were inflated with an intratracheal instillation of PFA 4% at a constant pressure (20 cm H2O) for 15 minutes. Next, lungs were removed and fixed in PFA 4% for 24 h and embedded in paraffin. Sections (5 μm) were cut for IHC and treated with antigen unmasking solution (Vector Laboratories). Sections were stained with monoclonal rabbit anti p-ERK (1:400 Cell Signaling) overnight and detected with Vectastain Elite Kit (Vector Laboratories). Visualization was done with DAB (Dako Corp) and couterstained with hematoxylin. Images were acquired using 20 or 40× objective on a microscope (model BX51; Olympus) equipped with a digital camera (model DP70 Olympus) using ImagePro software program.

Erk [2] = assay: Erk activation in BAECs (Western blotting, immunostaining); assay type: cell-based, bovine; settings: 20 μg/ml peptide or 25 μM U0126 for 1 hour; for immunostaining for activated Erk: then 25 ng/ml VEGF 30 minutes; for activation of Erk by VEGF (Western blotting): then VEGF 30 min
Protocol: After 1 hour, 25 ng/ml VEGF was added for 30 minutes. Cells were then fixed and stained for activated Erk.
B. Cells as in A were extracted and analyzed for Erk phosphorylation by Western blotting.
D. BAECs were incubated with peptides and stimulated with VEGF as in C, then lysed and analyzed for Erk activation by Western blotting.
Coverslips were washed and mounted using FluoroMount (Invitrogen).

[3] = system: mice exposed to aerosolized LPS; assay: LPS-induced pulmonary microvascular permeability (Evans blue dye extravasation)
Protocol: B. Mice inhaled LPS with control or Nck blocking peptide as in A. At 6 hours, they were injected with Evans blue dye and leakage into the lung assayed at 1 h.
B. Mice received intraperitoneal injections with the indicated amounts of the PIX blocking or control peptides. They were treated with aerosolized LPS for 6 h then leakage of Evans blue dye into the lung assayed as described in Methods.
Wild type male mice (C57B1/6, 8 to 12 weeks of age, Jackson Labs, Bar Harbor, Me.) were exposed to aerosolized LPS (Salmonella enteritidis, Sigma Co., St. Louis, Mo.) for 30 min. […] Control animals inhaled saline. Some mice received intraperitoneal (ip) injection of the PAK inhibitory or control peptides 30 min prior to treatment. […] Permeability was analyzed at 6 h using the Evans blue dye extravasation technique (Green et al., 1988). Briefly, Evans blue (20 mg/kg; Sigma) was injected intravenously 30 minutes prior to euthanasia. Lungs were perfused through the spontaneously beating right ventricle to remove intravascular dye. Lungs were removed and Evans blue was extracted as described (Peng et al., 2004). The absorption of Evans blue was measured at 620 nm and corrected for the presence of heme pigments: A620 (corrected)=A620−(1.426×A740+0.030) (Wang le et al., 2002). Extravasated Evans blue was calculated against a standard curve (micrograms Evans blue dye per gram lung).

BAECs = assay: In vitro permeability: HRP leakage across BAEC monolayer on 3 μm filters; assay type: cell-based; settings: bovine endothelial cells; peptide 20 μg/ml
Protocol: C. […] Cells were left untreated or stimulated for […] with 25 ng/ml VEGF, 50 ng/ml bFGF, or 10 μM histamine. Leakage of horseradish peroxidase (HRP) across the filter was assayed as described in Methods.
A. BAECs on filters with 3.0 μm pores were pretreated with 20 μg/ml PIX blocking or control peptides for 1 hour, then stimulated with VEGF for 30 minutes. HRP movement across the monolayer was assayed as described in Methods.
(§1) BAECs on FN-coated 3 μm filters at near-confluence were transfected with 0.5 μg cDNA using Effectene as described above. At 48 h, cells were pre-treated for 60 min with PAK peptides as indicated. For some experiments, cells were nucleofected, then plated on filters and grown to confluence for 48 hr. Filters were then placed in outer wells with 500 μl fresh DMEM without phenol red or serum. To each filter well was added 200 μl medium plus 50 μl of 1.5 μg/ml horseradish peroxidase (HRP) with or without cytokines as described. After 30 min, filters were removed and fixed, and the medium in the lower wells assayed for HRP as described (Stockton et al., 2004). Values were normalized to control, untreated wells.

HUVECs = assay: In vitro permeability: HRP leakage across HUVEC monolayer; assay type: cell-based, human; settings: peptide 20 μg/ml, not shown
Protocol: B. HUVECs were transfected with siRNA oligonucleotides specific to GIT1 or with control, scrambled siRNA. Total cell lysates at 72 hours were analyzed for GIT1 expression by Western blotting (top). Cells on filters were analyzed for permeability to HRP after treatment with VEGF (50 ng/ml), histamine (10 μM) or thrombin (0.2 U/ml).
The βPIX and GIT1 constructs were obtained from Dr. A. F. Horwitz. The ΔGBD βPIX (mutated for GIT1 binding) and ΔSHD mutant of GIT1 (mutated for PIX and MEK binding) were as described (Zhang et al., 2003). Dominant negative MEK1 was as described (Renshaw et al., 1997). GIT1 Smartpool siRNA oligos against human sequence were obtained from Dharmacon and the experiments were carried out in HUVECs. The Smartpool mixture contained 4 different siRNA oligos. The four different sense sequences are:
as §1, with “After 30 min, filters were removed and fixed, and the medium in the lower wells assayed for HRP as described (Stockton et al., 2004). Values were normalized to control, untreated wells.” left out

βPIX = target: T1, βPIX (Homo sapiens, UniProt Q14155); assay: Pull-down from cell lysates with biotin-tagged peptides on streptavidin beads; assay type: binding; settings: Western blotting
T1 construct: expressed in transfected cells
T1 sequence (Q14155 1-646 isoform Q14155-1): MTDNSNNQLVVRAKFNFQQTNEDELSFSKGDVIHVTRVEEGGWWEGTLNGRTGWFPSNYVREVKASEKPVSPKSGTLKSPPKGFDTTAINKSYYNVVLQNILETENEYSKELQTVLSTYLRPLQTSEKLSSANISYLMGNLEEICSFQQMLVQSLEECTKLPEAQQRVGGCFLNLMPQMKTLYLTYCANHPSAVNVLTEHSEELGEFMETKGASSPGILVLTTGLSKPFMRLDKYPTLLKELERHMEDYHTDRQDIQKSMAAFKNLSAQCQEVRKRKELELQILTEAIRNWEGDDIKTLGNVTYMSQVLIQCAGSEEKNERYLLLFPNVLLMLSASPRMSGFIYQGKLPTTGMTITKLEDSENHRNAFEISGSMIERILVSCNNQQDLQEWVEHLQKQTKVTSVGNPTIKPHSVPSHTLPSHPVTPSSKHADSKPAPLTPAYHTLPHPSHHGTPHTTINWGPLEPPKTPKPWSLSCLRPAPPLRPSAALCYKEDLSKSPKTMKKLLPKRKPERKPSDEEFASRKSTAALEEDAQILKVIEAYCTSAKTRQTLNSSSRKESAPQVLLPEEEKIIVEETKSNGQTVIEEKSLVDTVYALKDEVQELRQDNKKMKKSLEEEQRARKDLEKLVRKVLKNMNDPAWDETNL
Protocol: (§2) B. Cell lysates were incubated with peptides immobilized on streptavidin beads and the whole cell lysates (WCL) or bound proteins analyzed by Western blotting.
(§3) Cells were stimulated, washed with cold PBS, extracted with 0.5 ml cold immunoprecipitation (IP) buffer (20 mM Tris pH 7.6, 0.5% NP40, 250 mM NaCl, 5 mM EDTA, 3 mM EGTA; plus Sigma protease and phosphatase inhibitor cocktails) for 10 min. They were passed through an 18 gauge needle 3× and centrifuged for 10 min at 12,000×g in a microfuge. […] Anti-GIT1 and anti-βPIX were from Santa Cruz Biotechnology. […] For binding to peptides, 25 μg of biotin-tagged peptides were incubated with 25 μl of streptavidin beads for 30 min, then rinsed and incubated with 0.5 cell lysates for 30 min. Bound proteins were detected by Western blotting with the indicated antibodies. For βPIX, cells were transfected with HA-PIX and blots probed using anti-HA. Proteins were electrophoretically transferred to PVDF membranes, blocked with 5% milk in Tris-buffered saline (TBS) and probed overnight with primary antibodies in the same buffer. Membranes were washed 4×, probed with secondary antibodies for 2 h, and then visualized using chemiluminescence (ECL, Amersham).

cortactin = target: T2, cortactin (Homo sapiens, UniProt Q14247); assay: as above; assay type: binding; settings: Western blotting
T2 construct: endogenous in cells
T2 sequence (Q14247 1-550): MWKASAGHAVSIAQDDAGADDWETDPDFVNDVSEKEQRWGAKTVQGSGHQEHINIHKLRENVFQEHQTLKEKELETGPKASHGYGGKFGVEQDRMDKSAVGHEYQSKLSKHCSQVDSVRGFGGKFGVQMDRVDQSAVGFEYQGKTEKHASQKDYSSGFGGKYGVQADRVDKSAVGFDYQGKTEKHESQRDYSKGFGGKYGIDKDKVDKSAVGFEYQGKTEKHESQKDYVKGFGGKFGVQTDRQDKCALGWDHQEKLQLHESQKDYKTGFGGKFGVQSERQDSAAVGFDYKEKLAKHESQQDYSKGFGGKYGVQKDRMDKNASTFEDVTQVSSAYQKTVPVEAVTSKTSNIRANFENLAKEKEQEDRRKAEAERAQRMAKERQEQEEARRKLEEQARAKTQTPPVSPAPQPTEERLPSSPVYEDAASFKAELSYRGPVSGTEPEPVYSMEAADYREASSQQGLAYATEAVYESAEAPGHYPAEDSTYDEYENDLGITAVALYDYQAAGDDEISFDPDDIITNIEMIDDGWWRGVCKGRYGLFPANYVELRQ
Protocol: as §2, §3

CD2AP = target: T3, CD2AP (Homo sapiens, UniProt Q9Y5K6); assay: as above; assay type: binding; settings: higher amounts of cell lysates; not shown
T3 construct: endogenous in cells

DOCK180 = target: T4, DOCK180 (Homo sapiens, UniProt Q14185); assay: as above; assay type: binding; settings: higher amounts of cell lysates; not shown
T4 construct: endogenous in cells

[4] = system: other SH3-containing proteins; settings: cell lysates; Western blotting
Protocol: as §2, §3

[5] = system: interaction between PAK and PIX; settings: BAECs, 20 μg/ml peptide 1 h, VEGF 30 min
Protocol: BAECs were incubated with PIX blocking or control peptide at 20 μg/ml for 1 h, then stimulated with VEGF for 30 min. Cells were rinsed, lysed, and βPIX immunoprecipitated. The IP's were analyzed by Western blotting.
Cells were stimulated, washed with cold PBS, extracted with 0.5 ml cold immunoprecipitation (IP) buffer (20 mM Tris pH 7.6, 0.5% NP40, 250 mM NaCl, 5 mM EDTA, 3 mM EGTA; plus Sigma protease and phosphatase inhibitor cocktails) for 10 min. They were passed through an 18 gauge needle 3× and centrifuged for 10 min at 12,000×g in a microfuge. Supernatants were precleared with 25 μl of Protein G-agarose beads and incubated with the indicated primary antibody for 2 hrs at 4°. […] 25 μl of protein A- or protein G-agarose beads were added and incubated for another 2 h while rotating at 4° C. Beads were sedimented and washed 3× with 0.5 ml IP buffer and separated by SDS-PAGE. […] Proteins were electrophoretically transferred to PVDF membranes, blocked with 5% milk in Tris-buffered saline (TBS) and probed overnight with primary antibodies in the same buffer. Membranes were washed 4×, probed with secondary antibodies for 2 h, and then visualized using chemiluminescence (ECL, Amersham).

actin cytoskeleton = settings: BAECs; 20 μg/ml peptide; bFGF 60 min
Protocol: E. Cells incubated with peptides as in C and stimulated with bFGF for 60 min, then stained for F-actin.
Cells were fixed for 60 minutes in 3.5% formaldehyde, washed, and permeabilized for 10 minutes in 0.2% TX100. Coverslips were blocked with PBS containing 10% goat serum for 60 minutes, then probed 8 hours at 4° C. with 200 μl containing the following antibodies: phospho-ERK at 1:500; phospho-MEK at 1:500; phospho-PAK at 1:500; phospho-MLC at 1:500 (all from BioSource International); βPIX at 1:200 or GIT1 at 1:200 (Santa Cruz Biotechnology). Coverslips were washed and probed overnight at 4° C. with 200 μl anti-mouse IgG-Alexa 568 or anti-rabbit IgG-Alexa 488 (Molecular Probes) at 1:1000. Coverslips were washed and mounted using FluoroMount (Invitrogen).

T3 sequence (Q9Y5K6 whole entry, species assumed): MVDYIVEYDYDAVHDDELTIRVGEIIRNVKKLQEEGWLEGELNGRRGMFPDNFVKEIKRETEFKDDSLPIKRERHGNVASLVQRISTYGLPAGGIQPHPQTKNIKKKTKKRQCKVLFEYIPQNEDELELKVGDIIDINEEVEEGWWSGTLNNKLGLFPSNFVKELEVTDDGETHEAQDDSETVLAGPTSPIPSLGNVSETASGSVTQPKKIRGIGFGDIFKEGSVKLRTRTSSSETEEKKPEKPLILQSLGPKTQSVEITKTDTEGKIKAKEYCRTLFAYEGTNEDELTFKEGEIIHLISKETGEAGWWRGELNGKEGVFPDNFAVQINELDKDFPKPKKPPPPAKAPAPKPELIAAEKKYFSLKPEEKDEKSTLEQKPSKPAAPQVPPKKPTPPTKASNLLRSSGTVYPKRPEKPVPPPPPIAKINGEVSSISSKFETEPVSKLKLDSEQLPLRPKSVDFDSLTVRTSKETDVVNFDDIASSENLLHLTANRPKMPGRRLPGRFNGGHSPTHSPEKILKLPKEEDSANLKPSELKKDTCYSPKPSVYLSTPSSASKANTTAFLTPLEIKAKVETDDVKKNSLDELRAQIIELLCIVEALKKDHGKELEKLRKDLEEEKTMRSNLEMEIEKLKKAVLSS

| Compound | Erk activation (phospho-Erk staining) in lung sections (Erk [1]) | immunostaining for activated Erk (Erk [2]) | activation of Erk by VEGF (Western blotting) (Erk [2]) | induction of vascular leak by LPS (Evans blue dye) ([3]; 0.5 ml of 70 μM U0126 ip, 6 h) | leakage of Evans blue dye into the lung after inhalation of LPS ([3]; 1 mg peptide ip prior to aerosolized LPS, assayed at 6 h) | block of the increase in permeability in vitro in response to VEGF (BAECs) | block of the increase in permeability in vitro in response to VEGF (HUVECs) | binding of βPIX to immobilized peptide (βPIX) | binding of cortactin to immobilized peptide (cortactin) | binding of CD2AP to immobilized peptide (CD2AP) | binding of DOCK180 to immobilized peptide (DOCK180) | binding of other SH3-containing proteins to immobilized peptide [4] | amount of PIX in βPIX immunoprecipitates [5] | reduction of PAK in βPIX precipitates ([5]; peptide washed out before lysis) | increase in actin stress fibers in response to bFGF or VEGF (actin cytoskeleton) |
| --- | --- | --- | --- | --- | --- | --- | --- | --- | --- | --- | --- | --- | --- | --- | --- |
| N#CC(=C(/N)Sc1ccccc1N)/C(C#N)=C(\N)Sc1ccccc1N [U0126, reference compound] | blocked Erk activation throughout the tissue | nearly eliminated | blocked | significantly blocked |  |  |  |  |  |  |  |  |  |  |  |
| YGRKKRRQRRRGKPPAPPMRNTSTM (listed as Homo sapiens) [Nck-blocking peptide] | largely prevented | decreased phosphoErk at cell-cell borders | blocked |  | strongly inhibited |  |  |  |  |  |  |  |  |  |  |
| YGRKKRRQRRRGPPPVIAPRPEHTKSVYTR-K+Biotin [PIX-binding peptide] |  |  |  |  |  | approximately 80% | approximately 80% | bound βPIX with high efficiency | weak but reproducible binding | weak, specific binding | weak but nonspecific binding | no binding | no effect | about 70% | blocked |
